Results from patent US10004730B2, “Small molecules targeting androgen receptor nuclear localization and/or level in prostate cancer” (University of Pittsburgh-Of the Commonwealth System of …, priority 2011, dated 2018).

Experiments:
endogenous AR [1] = assay: Endogenous AR nuclear localization in C4-2 cells by immunofluorescence; assay type: cell-based; conditions: 300 nM, hormone-free
Procedure: (§1) FIGS. 3A and 3B. […] FIG. 3A. […] Localization was assessed by fluorescence microscopy 4 hours after treatment. FIG. 3B.
(§2) FIGS. 6A, 6B, 6C and 6D. FIG. 6A. Structures of compounds SID 14730725 (3-(4-Ethoxy-phenyl)-6,7-dihydro-5H-pyrrolo[1,2-a]imidazole), SID 14742211 (3-(4-Chloro-phenyl)-6,7-dihydro-5H-pyrrolo[1,2-a]imidazole) and SID 3712502 (2-[(3,5-dimethyl-1,2-oxazol-4-yl)methylsulfanyl]-1-[4-(2,3-dimethylphenyl)piperazin-1-yl]ethanone). FIG. 6B. Effect of SID 14730725 and SID 3712502 at indicated concentrations (uM) on nuclear localization of AR in castration-resistant C4-2 prostate cancer cells cultured in complete RPMI media with 10% FBS. C4-2 cells were transfected with GFP-AR and subcellular localization of GFP-AR was determined after overnight treatment using fluorescent microscopy. FIG. 6C. Quantitative analysis of results in FIG. 6B. The percent of transfected cells displaying predominant nuclear localization of GFP-AR at in the presence of various concentrations of SID 14730725 and SID 3712502 were determined. FIG. 6D. SID 14730725 inhibited endogenous AR nuclear localization in C4-2 cells. Endogenous AR was detected by immunofluorescent staining using AR antibody N-20 (Santa Cruz Biotechnology). Nuclei were stained with Hoechst.
(§3) Hsp90 plays an important role in ligand-induced AR nuclear translocation. […]

C4-2 cells = assay: Cell survival, crystal violet staining, C4-2; assay type: cell-based; conditions: 48 hrs
Procedure: (§4) FIGS. 8A and 8B. Effect of SID 14730725 and SID 3712502 on survival of PC3 (FIG. 8A) and C4-2 cells (FIG. 8B). PC3 or C4-2 cells were plated in 12-well plates at 2,500 cell per well in RPMI 1640 complete medium. After 24 hrs, the cells were treated with SID 14730725 or SID 3712502 at the indicated concentrations for 48 hrs. The wells were washed with PBS thrice and fixed in 0.5% crystal Violet in methanol. C=control; treated with vehicle DMSO.

[2] = tested on: castration resistant C4-2 xenograft tumors; assay: C4-2 xenograft tumors in castrated SCID mice; assay type: in vivo
Procedure: FIGS. 9A and 9B. FIG. 9A. SID 14730725 inhibits the growth of castration resistant C4-2 xenograft tumors. C4-2 tumors were established by sc injection of 1×10^6 cells resuspended in 0.25 ml RPMI complete media mixed with 0.25 ml of Matrigel into young adult male SCID mice. SCID mice were castrated and randomized when C4-2 tumor volume reach ˜200 ul. Mice received s.c. delivery of SID 14730725 (50 mg/Kg body weight) or vehicle control (corn oil) every other day for 2 weeks, beginning 4 days after castration. Each group consisted of 7 mice. Tumor volumes were measured using micro-calipers and calculated using the formula (length×width^2)/2. FIG. 9B. Body weight of animals was measured every other day. Bars represent the mean±SEM; **p<0.01; Red lines represent data from the animals treated with SID 14730725.

GFP-ER = molecular target: T1, GFP-ER (Homo sapiens, UniProt P03372); assay: GFP-ER nuclear localization in transfected C4-2 cells; assay type: cell-based; conditions: 24 hours
T1 construct: expressed in transfected cells; host or cells: C4-2
Procedure: (§5) FIG. 7. The effect of SID 14730725 and SID 3712502 on nuclear localization of GFP-ER (Top panel) and GFP-GR (Bottom panel) in C4-2 cells. C4-2 cells were transfected with GFP-ER or GFP-GR overnight. The following day the cells were treated with different concentrations (uM) of the small molecules. The cells transfected with GFP-GR were co-treated with 0.5 μM Dexamethasone. Cells were imaged 24 hours after the treatment with the small molecules.

GFP-AR [3] = molecular target: T2, GFP-AR (Homo sapiens, UniProt P10275); assay: Localization of transiently transfected GFP-AR by fluorescence microscopy; assay type: cell-based; conditions: for GFP-AR localization: 1 nM
T2 construct: expressed in transfected cells; also PC3 and LNCaP (transient)
T2 sequence (P10275 1-920): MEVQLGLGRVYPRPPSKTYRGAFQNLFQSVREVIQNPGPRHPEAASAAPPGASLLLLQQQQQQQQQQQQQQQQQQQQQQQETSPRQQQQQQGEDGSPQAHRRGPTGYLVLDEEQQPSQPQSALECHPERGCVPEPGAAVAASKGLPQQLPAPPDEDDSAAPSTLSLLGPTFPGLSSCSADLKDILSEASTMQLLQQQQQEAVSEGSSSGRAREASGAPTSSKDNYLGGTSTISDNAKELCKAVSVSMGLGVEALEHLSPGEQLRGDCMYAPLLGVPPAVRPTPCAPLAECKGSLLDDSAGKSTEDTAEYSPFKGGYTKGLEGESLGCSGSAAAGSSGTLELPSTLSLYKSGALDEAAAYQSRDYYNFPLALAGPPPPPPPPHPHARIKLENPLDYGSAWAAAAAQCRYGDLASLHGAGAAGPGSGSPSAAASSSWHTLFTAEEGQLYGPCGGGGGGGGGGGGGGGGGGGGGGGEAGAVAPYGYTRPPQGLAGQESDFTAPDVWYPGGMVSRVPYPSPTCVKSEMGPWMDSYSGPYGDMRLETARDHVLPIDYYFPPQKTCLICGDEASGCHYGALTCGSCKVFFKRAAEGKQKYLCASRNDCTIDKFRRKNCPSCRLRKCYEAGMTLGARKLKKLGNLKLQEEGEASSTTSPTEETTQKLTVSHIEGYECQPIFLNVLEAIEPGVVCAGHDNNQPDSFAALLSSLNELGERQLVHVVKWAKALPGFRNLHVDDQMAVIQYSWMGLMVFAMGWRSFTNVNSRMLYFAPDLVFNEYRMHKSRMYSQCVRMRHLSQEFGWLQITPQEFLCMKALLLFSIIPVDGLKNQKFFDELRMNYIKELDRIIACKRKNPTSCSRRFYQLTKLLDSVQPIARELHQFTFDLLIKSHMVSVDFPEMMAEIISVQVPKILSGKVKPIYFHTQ
Procedure: FIGS. 2A and 2B. Localization of GFP-AR in AR-negative PC3, androgen-sensitive LNCaP, and CRPC C4-2 cells. […] PC3, LNCaP, and C4-2 cells were transfected with GFP-AR and localization was assessed in ligand-free conditions or in the presence of mibolerone by fluorescence microscopy within 24 hours of transfection. The results in FIG. 2B are from five transfections for each cell line in the absence of androgen. At least 50 cells were counted after each transfection. Error bars represent ±SEM.
as §1
FIGS. 6A, 6B, 6C and 6D. FIG. 6A. […] FIG. 6B. […] C4-2 cells were transfected with GFP-AR and subcellular localization of GFP-AR was determined after overnight treatment using fluorescent microscopy. FIG. 6C. Quantitative analysis of results in FIG. 6B. […] FIG. 6D. […] Endogenous AR was detected by immunofluorescent staining using AR antibody N-20 (Santa Cruz Biotechnology). Nuclei were stained with Hoechst.
A prerequisite for AR transcriptional activity is its nuclear localization. To determine whether the subcellular localization of AR was altered during the progression to castration-resistance, AR-negative PC3 prostate cancer cells, androgen-sensitive LNCaP cells and castration-resistant C4-2 cells were transfected with AR tagged to green fluorescent protein (GFP) and localization was assessed by fluorescence microscopy in hormone-free conditions.
Hsp90 plays an important role in ligand-induced AR nuclear translocation. […] To determine if the effect of hsp90 inhibition on endogenous AR in C4-2 cells was similar to its effect on transfected GFP-AR, immunofluorescence experiments were performed.

endogenous AR [4] = molecular target: T3, endogenous AR (Homo sapiens, UniProt P10275, T878A); assay: Endogenous AR nuclear localization in C4-2 cells by immunofluorescence; assay type: cell-based; conditions: AR antibody N-20
T3 construct: endogenous in cells; host or cells: C4-2
Procedure: as §1, §2, §3

GFP-GR = molecular target: T4, GFP-GR (Homo sapiens, UniProt P04150); assay: GFP-GR nuclear localization in transfected C4-2 cells; assay type: cell-based; conditions: co-treated with 0.5 μM Dexamethasone, 24 hours
T4 construct: expressed in transfected cells; host or cells: C4-2
Procedure: as §5

PC3 cells = assay: Cell survival, crystal violet staining, PC3; assay type: cell-based; conditions: 48 hrs
Procedure: as §4

AR = AR (Homo sapiens, UniProt P10275); conditions: reported in earlier studies; cited from earlier work
GFP-AR [5] = molecular target: T2, GFP-AR; assay: GFP-AR localization in stably transfected C4-2-GFP-AR sublines / high throughput screen assay; assay type: cell-based; conditions: 5 uM, 24 hours; C4-2 stably transfected with GFP-AR; charcoal-stripped FBS medium
Procedure: The images were acquired 24 hours after the treatment of docetaxel at 5 uM or vehicle DMSO. C4-2 cells stably transfected with GFP-AR were changed to phenol red-free RPMI with 10% charcoal-stripped FBS medium before the addition of docetaxel. Nuclei of the cells were stained with Hoechst dye. Images were acquired by fluorescent microscopy.
Localization of GFP-AR signal was assessed by fluorescence microscopy overnight after treatment.
The C4-2-GFP-AR subclone was cultured in 384-well plates in complete RPMI media. We used regular complete media in high throughput assay because it contains castration levels of androgens. […] Images of GFP signals and Hoechst signals were acquired into separate channels on a Cellomics ArrayScan® V^TI system. Both nuclear and cytoplasmic GFP signals were quantified with the ArrayScan V^TI, which uses an image-based auto-focus system, and has the capability of imaging up to six excitation and emission channels. […] The Cellomics compartmental analysis algorithm was used to quantify the relative distribution of the GFP-AR between nuclear and cytoplasmic cellular compartments. […] The mask was eroded to reduce cytoplasmic contamination within the nuclear area, and the reduced mask was used to quantify the amount of target channel GFP fluorescence within the nucleus. […]

T3 sequence (P10275 whole entry T878A): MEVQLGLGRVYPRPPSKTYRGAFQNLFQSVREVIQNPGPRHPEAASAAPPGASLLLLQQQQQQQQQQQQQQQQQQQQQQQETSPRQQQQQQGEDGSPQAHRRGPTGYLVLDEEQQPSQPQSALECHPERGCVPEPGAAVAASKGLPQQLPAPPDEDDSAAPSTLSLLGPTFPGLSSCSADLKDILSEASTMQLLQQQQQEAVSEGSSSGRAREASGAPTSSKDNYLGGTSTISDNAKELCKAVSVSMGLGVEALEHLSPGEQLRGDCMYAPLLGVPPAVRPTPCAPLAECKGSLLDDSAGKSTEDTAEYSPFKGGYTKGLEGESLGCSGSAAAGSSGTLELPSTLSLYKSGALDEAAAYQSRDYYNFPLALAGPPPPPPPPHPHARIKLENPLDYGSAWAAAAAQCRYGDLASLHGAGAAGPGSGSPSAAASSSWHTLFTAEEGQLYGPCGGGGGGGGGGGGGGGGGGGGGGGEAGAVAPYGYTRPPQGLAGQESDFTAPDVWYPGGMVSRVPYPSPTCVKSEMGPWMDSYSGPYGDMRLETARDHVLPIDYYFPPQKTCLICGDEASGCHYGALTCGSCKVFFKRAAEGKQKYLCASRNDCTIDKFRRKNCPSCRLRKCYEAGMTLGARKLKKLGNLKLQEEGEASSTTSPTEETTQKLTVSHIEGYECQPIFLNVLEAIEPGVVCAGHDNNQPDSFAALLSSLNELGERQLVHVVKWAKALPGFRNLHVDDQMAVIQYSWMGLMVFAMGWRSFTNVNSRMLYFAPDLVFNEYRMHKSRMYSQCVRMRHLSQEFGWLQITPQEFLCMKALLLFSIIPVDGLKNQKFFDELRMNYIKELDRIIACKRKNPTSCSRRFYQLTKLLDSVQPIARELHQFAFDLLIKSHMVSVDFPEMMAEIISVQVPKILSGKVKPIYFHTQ
T1 sequence (P03372 whole entry): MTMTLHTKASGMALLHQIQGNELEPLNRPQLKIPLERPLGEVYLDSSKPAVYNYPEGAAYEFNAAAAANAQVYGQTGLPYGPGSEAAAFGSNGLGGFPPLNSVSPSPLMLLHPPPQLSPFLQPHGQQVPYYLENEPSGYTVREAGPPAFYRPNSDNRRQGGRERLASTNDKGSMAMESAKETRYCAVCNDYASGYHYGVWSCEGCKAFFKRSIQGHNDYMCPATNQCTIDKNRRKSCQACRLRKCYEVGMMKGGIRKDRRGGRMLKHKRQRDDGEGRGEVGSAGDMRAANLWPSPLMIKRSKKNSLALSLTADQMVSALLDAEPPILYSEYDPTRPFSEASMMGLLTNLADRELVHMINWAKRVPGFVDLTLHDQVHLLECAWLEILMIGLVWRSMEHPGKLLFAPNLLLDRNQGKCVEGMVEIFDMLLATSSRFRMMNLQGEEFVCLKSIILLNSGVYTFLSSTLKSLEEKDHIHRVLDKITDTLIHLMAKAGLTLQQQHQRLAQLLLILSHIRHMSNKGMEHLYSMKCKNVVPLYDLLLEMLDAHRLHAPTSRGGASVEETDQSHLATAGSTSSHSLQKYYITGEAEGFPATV
T4 sequence (P04150 whole entry): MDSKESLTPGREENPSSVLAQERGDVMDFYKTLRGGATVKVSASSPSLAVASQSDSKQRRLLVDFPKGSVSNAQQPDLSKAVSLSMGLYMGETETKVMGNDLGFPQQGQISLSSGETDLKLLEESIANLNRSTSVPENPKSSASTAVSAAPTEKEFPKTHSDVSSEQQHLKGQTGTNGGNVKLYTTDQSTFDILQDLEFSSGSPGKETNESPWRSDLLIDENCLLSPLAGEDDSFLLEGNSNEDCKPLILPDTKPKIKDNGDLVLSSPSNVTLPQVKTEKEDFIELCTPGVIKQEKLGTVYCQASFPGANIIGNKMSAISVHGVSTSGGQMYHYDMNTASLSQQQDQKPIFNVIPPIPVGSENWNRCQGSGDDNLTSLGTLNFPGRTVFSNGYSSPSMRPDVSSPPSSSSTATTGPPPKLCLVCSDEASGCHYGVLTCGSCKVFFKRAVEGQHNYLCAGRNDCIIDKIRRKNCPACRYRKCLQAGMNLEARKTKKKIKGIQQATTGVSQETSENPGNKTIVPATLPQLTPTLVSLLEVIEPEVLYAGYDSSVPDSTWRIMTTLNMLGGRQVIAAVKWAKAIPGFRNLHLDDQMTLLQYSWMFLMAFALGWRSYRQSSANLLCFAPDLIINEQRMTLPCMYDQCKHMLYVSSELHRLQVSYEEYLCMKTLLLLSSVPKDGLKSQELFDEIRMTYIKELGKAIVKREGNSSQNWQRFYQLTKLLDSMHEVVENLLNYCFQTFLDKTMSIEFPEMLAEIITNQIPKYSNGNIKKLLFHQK

C=CCNC1=C2C[C@@H](C)C[C@H](OC)[C@H](O)[C@@H](C)/C=C(\C)[C@H](OC(N)=O)[C@@H](OC)/C=C\C=C(/C)C(=O)NC(=CC1=O)C2=O [17-AAG, reference compound]
endogenous AR nuclear expression (endogenous AR [1]): a decrease in nuclear AR expression was observed

CCOc1ccc(-c2cnc3n2CCC3)cc1 [SID 14730725, 3-(4-Ethoxy-phenyl)-6,7-dihydro-5H-pyrrolo[1,2-a]imidazole]
cytotoxicity (C4-2 cells): little or no cytotoxicity | body weight of injected mice ([2]; 50 mg/Kg s.c. every other day): did not affect the body weight | growth of C4-2 xenograft tumor ([2]; 50 mg/Kg s.c. every other day for 2 weeks, castrated SCID mice): able to inhibit the growth of a C4-2 xenograft tumor with statistical significance | localization of GFP-ER (GFP-ER): no effect | blocking AR nuclear localization, dependence on androgen level (GFP-AR [3]; absence or very low levels of androgens): more effective in blocking AR nuclear localization in the absence or in the presence of very low levels of androgens | GFP-AR nuclear localization (GFP-AR [3]; transfected C4-2 cells, complete RPMI with 10% FBS, overnight treatment): effectively inhibited | endogenous AR nuclear localization (endogenous AR [4]): inhibited | localization of GFP-GR (GFP-GR): no effect | cytotoxicity (PC3 cells): little or no cytotoxicity

CC(=O)O[C@@]12CO[C@@H]1C[C@H](O)[C@@]1(C)C(=O)[C@H](O)C3=C(C)[C@@H](OC(=O)[C@H](O)[C@@H](NC(=O)OC(C)(C)C)c4ccccc4)C[C@@](O)([C@@H](OC(=O)c4ccccc4)[C@H]21)C3(C)C [docetaxel]
AR nuclear translocation (AR): can inhibit androgen-dependent AR nuclear translocation | AR nuclear localization in castration-resistant C4-2 cells (GFP-AR [5]): no significant effect

C[C@@H]1CC2=CC(=O)CC[C@@H]2[C@H]2CC[C@@]3(C)[C@@H](CC[C@]3(C)O)[C@@H]21 [mibolerone]
GFP-AR localization (GFP-AR [3]; C4-2 cells): induced complete nuclear localization | GFP-AR localization (GFP-AR [3]; LNCaP cells): induced complete nuclear localization | GFP-AR localization (GFP-AR [3]; PC3 cells): induced complete nuclear localization

C[C@@H]1C[C@H]2O[C@@H]2/C=C\C=C\C(=O)Cc2c(Cl)c(O)cc(O)c2C(=O)O1 [radicicol]
nuclear localization of GFP-AR (GFP-AR [3]; C4-2 cells, data not shown): prevented
